# From the supplement of paper PMC4862054
# Legend:
# Conditions in all cases: incubation time: 72 h
# Hs578T [1] = test: normalised response (% of control), CellTiter-Glo; higher = more viable cells (100 = DMSO, 0 = benzethonium chloride kill control)
# Method: (§1)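 DSRT, 72 h incubation, CellTox Green / CellTiter-Glo readout. Signal is normalised to DMSO and benzethonium chloride controls. Value is the normalised response at dose 3.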
# CAL-85-1 [2] = test: as above
# Method: as §1
# CAL-148 [3] = test: as above
# Method: as §1
# MDA-MB-453 [4] = test: as above
# Method: as §1
# CAL-120 [5] = test: as above
# Method: as §1
# CAL-51 [6] = test: as above
# Method: as §1
# MFM-223 [7] = test: as above
# Method: as §1
# MDA-MB-436 [8] = test: as above
# Method: as §1
# HDQ-P1 [9] = test: as above
# Method: as §1
# HCC1143 [10] = test: as above
# Method: as §1
# BT-549 [11] = test: as above
# Method: as §1
# MDA-MB-468 [12] = test: as above
# Method: as §1
# DU-4475 [13] = test: as above
# Method: as §1
# BT-474 [14] = test: as above
# Method: as §1
# HCC1937 [15] = test: as above
# Method: as §1
# HCC1599 [16] = test: as above
# Method: as §1
# MCF-10A [17] = test: as above
# Method: as §1
# MDA-MB-231 [18] = test: as above
# Method: as §1
# SK-BR-3 = test: as above
# Method: as §1
# Hs578T [19] = test: normalised response (% of control), CellTox Green; higher = less cell death (100 = DMSO, 0 = benzethonium chloride kill control)
# How it was run: (§2)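 For each plate, 0.1 % DMSO was set to 100 and a positive kill control to 0. Breast cancer cell lines (20 µl suspension) were seeded into 384-well plates already holding compound at 5 concentrations in 10-fold steps over a 10,000-fold range chosen per compound, and incubated for 72 h. CellTox Green fluorescence at 485/520 nm was read before CellTiter-Glo luminescence, which followed 10 min at room temperature. Each value is the normalised signal at one concentration.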
# CAL-85-1 [20] = test: as above
# How it was run: as §2
# MDA-MB-453 [21] = test: as above
# How it was run: as §2
# CAL-120 [22] = test: as above
# How it was run: as §2
# CAL-51 [23] = test: as above
# How it was run: as §2
# MFM-223 [24] = test: as above
# How it was run: as §2
# HDQ-P1 [25] = test: as above
# How it was run: as §2
# HCC1143 [26] = test: as above
# How it was run: as §2
# BT-549 [27] = test: as above
# How it was run: as §2
# MDA-MB-468 [28] = test: as above
# How it was run: as §2
# DU-4475 [29] = test: as above
# How it was run: as §2
# BT-474 [30] = test: as above
# How it was run: as §2
# HCC1937 [31] = test: as above
# How it was run: as §2
# HCC1599 [32] = test: as above
# How it was run: as §2
# MCF-10A [33] = test: as above
# How it was run: as §2
# MDA-MB-231 [34] = test: as above
# How it was run: as §2
# CAL-148 [35] = test: as above
# How it was run: as §2
# MDA-MB-436 [36] = test: as above
# How it was run: as §2
SMILES,normalised response (Hs578T [1]) [%],normalised response (CAL-85-1 [2]) [%],normalised response (CAL-148 [3]) [%],normalised response (MDA-MB-453 [4]) [%],normalised response (CAL-120 [5]) [%],normalised response (CAL-51 [6]) [%],normalised response (MFM-223 [7]) [%],normalised response (MDA-MB-436 [8]) [%],normalised response (HDQ-P1 [9]) [%],normalised response (HCC1143 [10]) [%],normalised response (BT-549 [11]) [%],normalised response (MDA-MB-468 [12]) [%],normalised response (DU-4475 [13]) [%],normalised response (BT-474 [14]) [%],normalised response (HCC1937 [15]) [%],normalised response (HCC1599 [16]) [%],normalised response (MCF-10A [17]) [%],normalised response (MDA-MB-231 [18]) [%],normalised response (SK-BR-3) [%],normalised response (Hs578T [19]) [%],normalised response (CAL-85-1 [20]) [%],normalised response (MDA-MB-453 [21]) [%],normalised response (CAL-120 [22]) [%],normalised response (CAL-51 [23]) [%],normalised response (MFM-223 [24]) [%],normalised response (HDQ-P1 [25]) [%],normalised response (HCC1143 [26]) [%],normalised response (BT-549 [27]) [%],normalised response (MDA-MB-468 [28]) [%],normalised response (DU-4475 [29]) [%],normalised response (BT-474 [30]) [%],normalised response (HCC1937 [31]) [%],normalised response (HCC1599 [32]) [%],normalised response (MCF-10A [33]) [%],normalised response (MDA-MB-231 [34]) [%],normalised response (CAL-148 [35]) [%],normalised response (MDA-MB-436 [36]) [%]
Cn1cc(C2=Nc3cc(NC(=O)C(N)C4CCCCC4)cc4c3C2=CNNC4=O)cn1 (stereo not given) (100 nM),90.7,87.1,82.7,74.1,89,96.7,77.8,91.6,95.2,90.9,93.5,88.8,95.1,94.4,95.1,63.3,81.7,93.5,74.1,98.8,73,85,92,96.1,98.5,107,101,87.2,106,96.7,97.7,76.5,89.5,62.9,96.3,,
COc1cc2c(cc1O)CC[C@@H]1[C@@H]2CC[C@]2(C)[C@@H](O)CC[C@@H]12 [2-methoxyestradiol] (100 nM),102,97.3,90.6,91.1,101,63.5,94.2,101,103,100,95.5,103,101,98.5,93.4,89.4,94.5,102,89,103,87.6,101,98,78.3,102,107,,110,69.5,98.7,94,97.3,102,61.8,99.3,56.1,87.4
CC1(C)CCC(CN2CCN(c3ccc(C(=O)NS(=O)(=O)c4ccc(NCC5CCOCC5)c([N+](=O)[O-])c4)c(Oc4cnc5[nH]ccc5c4)c3)CC2)=C(c2ccc(Cl)cc2)C1 [ABT-199] (100 nM),107,101,98.9,90.7,101,92.4,99.2,96.7,104,102,100,93.6,102,96.7,98.2,94.2,98.2,99.3,101,104,94.6,101,101,101,79.9,93.6,91.6,,,99.3,101,89.3,99.2,81.7,105,84.2,83
O=C1CN2Cc3c(ccc(Cl)c3Cl)N=C2N1 [Anagrelide] (100 nM),98.5,97,94.1,111,96,63.1,101,94.3,97.2,101,105,99.5,96.9,93.7,95.8,104,98.4,94.7,103,104,104,92.5,98,51.3,68.7,101,108,77.3,146,98.5,99.4,103,86.8,100,96.2,100,105
Nc1ncn([C@@H]2O[C@H](CO)[C@@H](O)[C@H]2O)c(=O)n1 [Azacitidine] (100 nM),100,99.1,101,89,96.3,99.8,98,99,103,98.6,101,96.4,91.1,102,97,100,103,98.1,96,103,108,83.8,96.9,99.3,97.8,64.8,56,99.9,115,98.2,101,99.4,98,87,88.1,103,79.5
O=NN(CCCl)C(=O)NCCCl [Carmustine] (100 nM),105,101,92.3,101,95.5,85,98.3,101,100,100,111,101,101,97.7,95.8,88,92.5,97.3,99.7,100,101,91.5,95.2,99.1,101,106,101,90.8,52.9,95.1,99.1,103,97.9,93.4,100,100,61.7
CC(=O)O[C@@]12CO[C@@H]1C[C@H](O)[C@@]1(C)C(=O)[C@H](O)C3=C(C)[C@@H](OC(=O)[C@H](O)[C@@H](NC(=O)OC(C)(C)C)c4ccccc4)C[C@@](O)([C@@H](OC(=O)c4ccccc4)[C@H]21)C3(C)C [Docetaxel] (10 nM),28.1,26.6,38.2,61.2,61.7,43.1,54.3,40.7,69.4,35.5,20.5,22.7,68.8,67.8,67.3,71.9,46.2,53.4,12.2,39.5,26.6,99.3,88.8,11.5,77.9,-5.27,88.9,63.4,104,94,65.8,24.7,95.8,56.1,-111,61.8,79.8
Nc1nc2[nH]cnc2c(=S)[nH]1 [Thioguanine] (100 nM),101,91.9,102,112,108,109,96.8,97,90.8,101,95.9,98.8,95.7,83.4,96.3,96.5,97.4,93.5,98.9,90.5,111,99,100,108,98.7,104,59.1,103,66.4,101,102,96.7,97.1,75.6,105,,89
